In patent US10131679B2, “Substituted dihydropyrrolopyrazole compound” (UBE INDUSTRIES, LTD., priority 2014, dated 2018):
pIC50, pKi: −log10 of the molar value.

Tests used:
[1] = target: T1, CDK7 (Homo sapiens, UniProt P50613); assay: CDK7 enzyme inhibition test; assay type: biochemical; settings: Ki=IC50/(1+S/Km); 33P bound to MBP, [γ-33P]ATP, 30° C. for 20 minutes; read-out: Ki value of CDK7 inhibitory activity
T1 construct: purchased Carna Biosciences, Inc. 04-108
How it was run: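 Recombinant CDK7 with MBP substrate and [γ-33P]ATP (500 μM solution, diluted into the mix) in HEPES pH 7.4/DTT/Triton X-100/MgCl2, 20 min at 30 °C. TCA-precipitated 33P-MBP counted by scintillation; IC50 from inhibition, Ki = IC50/(1+S/Km).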

[2] = system: human large intestine cancer cell line (HCT-116); assay: Human large intestine cancer (HCT-116) cell growth inhibition test; assay type: cell-based; settings: 72 h, HCT-116, culture for 3 days, sulforhodamine B absorbance
How it was run: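 HCT-116 cells seeded at 1.0×10^3 cells/well in McCoy's 5a with 10% FBS, then exposed to compound (0.1% DMSO final) for 3 days. Growth measured by sulforhodamine B absorbance; IC50 derived from concentration-inhibition data.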

T1 sequence (P50613 whole entry): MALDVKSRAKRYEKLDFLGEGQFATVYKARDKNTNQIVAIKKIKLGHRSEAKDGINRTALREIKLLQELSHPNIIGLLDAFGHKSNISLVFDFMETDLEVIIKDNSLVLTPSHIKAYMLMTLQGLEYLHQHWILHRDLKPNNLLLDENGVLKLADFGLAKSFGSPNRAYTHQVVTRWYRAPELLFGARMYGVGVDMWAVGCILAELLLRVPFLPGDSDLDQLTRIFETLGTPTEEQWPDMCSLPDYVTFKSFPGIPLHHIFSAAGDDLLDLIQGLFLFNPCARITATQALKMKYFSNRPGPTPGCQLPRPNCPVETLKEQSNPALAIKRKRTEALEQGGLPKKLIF
T1 sequence (P51946 whole entry partner): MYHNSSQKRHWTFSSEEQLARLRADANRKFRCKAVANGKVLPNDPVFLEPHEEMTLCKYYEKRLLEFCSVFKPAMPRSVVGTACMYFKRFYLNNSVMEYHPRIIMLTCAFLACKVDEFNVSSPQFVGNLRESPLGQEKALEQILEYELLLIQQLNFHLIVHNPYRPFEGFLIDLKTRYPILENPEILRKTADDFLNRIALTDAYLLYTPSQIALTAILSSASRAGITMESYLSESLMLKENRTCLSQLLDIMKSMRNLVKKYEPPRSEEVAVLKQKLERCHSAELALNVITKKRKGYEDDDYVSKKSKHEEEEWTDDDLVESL
T1 sequence (P51948 whole entry partner): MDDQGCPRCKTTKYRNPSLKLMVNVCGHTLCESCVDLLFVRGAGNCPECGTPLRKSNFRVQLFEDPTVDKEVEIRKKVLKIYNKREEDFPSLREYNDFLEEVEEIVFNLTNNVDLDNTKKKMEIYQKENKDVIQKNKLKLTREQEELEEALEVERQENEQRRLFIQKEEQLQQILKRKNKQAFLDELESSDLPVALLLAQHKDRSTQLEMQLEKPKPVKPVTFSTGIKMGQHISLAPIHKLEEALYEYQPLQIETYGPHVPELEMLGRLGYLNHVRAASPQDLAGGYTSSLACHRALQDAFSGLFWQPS

Question: With CC1(C)c2[nH]nc(NC(=O)C3([Si](C)(C)C)CCC3)c2CN1C(=O)O[C@H](CO)c1ccccc1 [IV-2, (S)-2-Hydroxy-1-phenylethyl 6,6-dimethyl-3-[1-(trimethylsilyl)cyclobutanecarboxamido]-4,6-dihydropyrrolo[3,4-c]pyrazole-5(1H)-carboxylate] as the compound, how does the pKi [1] read?
Answer: Its pKi is no less than 7.30.

Question: What about the pIC50 [2] of the same compound?
Answer: The pIC50 was no less than 6.30.

Question: CC(C)O[C@@H](C(=O)N1Cc2c(NC(=O)C3([Si](C)(C)C)CCC3)n[nH]c2C1(C)C)c1ccccc1 [IV-1204, (R)—N-[5-(2-Isopropoxy-2-phenylacetyl)-6,6-dimethyl-1,4,5,6-tetrahydropyrrolo[3,4-c]pyrazol-3-yl]-1-(trimethylsilyl)cyclobutanecarboxamide] was tested. Which pKi [1] did it give?
Answer: Its pKi is no less than 7.30.

Question: What about the pIC50 [2] of the same compound?
Answer: Its pIC50 is no less than 6.30.

Question: CC1(C)c2[nH]nc(NC(=O)C3([Si](C)(C)C)CCC3)c2CN1C(=O)NCC(O)c1ccccc1 (centres unmarked) [IV-450, N-(2-Hydroxy-2-phenylethyl)-6,6-dimethyl-3-[1-(trimethylsilyl)cyclobutanecarboxamido]-4,6-dihydropyrrolo[3,4-c]pyrazole-5(1H)-carboxamide] was tested. Which pKi [1] did it give?
Answer: The pKi was no less than 7.30.

Question: What about the pIC50 [2] of the same compound?
Answer: Its pIC50 is no less than 6.30.

Question: How did the pKi [1] turn out when CC1(C)c2[nH]nc(NC(=O)C(C)(C)[Si](C)(C)C)c2CN1C(=O)N[C@H](CO)c1ccccc1 [II-114, (S)—N-(2-Hydroxy-1-phenylethyl)-6,6-dimethyl-3-[2-methyl-2-(trimethylsilyl)propanamido]-4,6-dihydropyrrolo[3,4-c]pyrazole-5(1H)-carboxamide] was run?
Answer: The pKi was no less than 7.30.

Question: What about the pIC50 [2] of the same compound?
Answer: The pIC50 was no less than 6.30.
